Experimental data as given in patent US12285408B2, “Methods and compositions for the treatment of snake bite” (priority 2021, dated 2025).
“Also recorded” adds a separate entry of the source.

What was measured:
Echis ocellatus venom = assay: Murine preincubation (co-incubation) model of venom lethality, intravenous, with TAT ELISA; type: in vivo, CD-1 mice; settings: 45 μg venom (2.5×LD50) preincubated 30 min at 37° C. with 60 μg of each drug, i.v., 6 h monitoring, n=5
Protocol: The intravenous median lethal dose (venom LD50) for E. ocellatus (Nigeria) of 17.85 μg per mouse was previously determined. Mice were challenged with 45 μg of E. ocellatus venom (2.5×the intravenous LD50 dose) in a refined version of the World Health Organization-recommended antivenom efficacy experiments. Groups of five male 18-22 g CD-1 mice (Charles River, UK) received experimental doses that consisted of either (a) venom only (2.5×LD50 dose), (b) venom and drug (60 μg) or (c) drug only. All experimental doses were prepared to a volume of 200 μl in PBS and incubated at 37° C. for 30 mins prior to their intravenous injection via the tail vein. Animals were monitored for 6 hours and euthanized upon observation of humane endpoints (seizure, pulmonary distress, paralysis, hemorrhage). Deaths, time of death, and survivors were recorded; where “deaths/time of death” represents the implementation of euthanasia based on the defined humane endpoints.
(§1) The same murine preincubation model was used to assess the efficacy of distinct toxin family inhibiting drugs in comparison with a drug combination. […] All experimental doses were prepared to a volume of 200 μl in PBS and incubated at 37° C. for 30 min prior to their intravenous injection via the tail vein. Animals were monitored for 6 h, and euthanized via rising concentrations of CO2 upon observation of previously defined humane end points that are predicators of lethality (e.g., seizure, pulmonary distress, paralysis, hemorrhage). Deaths, time of death, and survivors were recorded; where death/time of death represents the implementation of euthanasia based on defined humane end points.
Strong drug hits, those defined as inhibiting >80% of the venom activity in the previously described in vitro metalloproteinase assay (FIG. 1), were next progressed into murine preclinical efficacy studies, to assess their ability to prevent venom-induced lethality in vivo. We used an established in vivo model of envenoming to test the efficacy of the seven snake venom metalloproteinase toxin inhibitors identified. This model consisted of the preincubation of the test drug with venom, followed by intravenous injection of the mixture into groups of five male CD-1 mice (18-20 g) via the tail vein followed by 6 hour monitoring, and is based on principles laid out in the gold standard method of preclinical efficacy recommended by the World Health Organization.
We used an established in vivo model of envenoming^41,42 to test the efficacy of small molecule toxin inhibitors. […]

C. atrox venom = assay: Murine preincubation model of venom lethality, North American pit viper venom; type: in vivo, CD-1 mice; settings: 2.5×LD50 C. atrox venom preincubated with 60 μg of each drug, i.v., 6 h, n=5
Protocol: as §1, with “Thereafter, the” for “The”, “animal” for “preincubation”, “explore” for “assess”, “the same snake venom metalloproteinase and phospholipase A2” for “distinct toxin family”, “as solo and combination treatments against North American pit viper venoms. The intravenous median lethal dose (venom LD50) for C. atrox, C. scutulatus, S. miliariius and A. contortrix venoms was previously determined (3.79 μg, 0.17 μg, 4.87 μg and 4.99 μg per mouse, respectively).” for “in comparison with a drug combination.”, “As described above, all” for “All”
(§2) These snake species were selected for their taxonomic diversity and clinical importance in the USA, namely: 1) Crotalus atrox (Western diamondback), which is found across the southwest USA and into Mexico and is thought to be the most common cause of snakebite envenoming in USA, 2) Crotalus scutulatus (Mojave rattlesnake), which is also found across the southwest USA and into Mexico, 3) Sistrurus miliarius (pygmy rattlesnake), which is found in the South-East USA, and 4) Agkistrodon contortrix (Eastern copperhead), which is found in central and eastern USA. […] The drug treatments consisted of: DMPS, marimastat, or varespladib as solo drug treatments, or a DMPS and varespladib combination, or a marimastat and varespladib combination.

C. scutulatus venom = assay: as above; type: in vivo, CD-1 mice; settings: 2.5×LD50 C. scutulatus venom preincubated with 60 μg of each drug, i.v., 6 h, n=5
Protocol: as §1, with “Thereafter, the” for “The”, “animal” for “preincubation”, “explore” for “assess”, “the same snake venom metalloproteinase and phospholipase A2” for “distinct toxin family”, “as solo and combination treatments against North American pit viper venoms. The intravenous median lethal dose (venom LD50) for C. atrox, C. scutulatus, S. miliariius and A. contortrix venoms was previously determined (3.79 μg, 0.17 μg, 4.87 μg and 4.99 μg per mouse, respectively).” for “in comparison with a drug combination.”, “As described above, all” for “All”
as §2

A. contortrix venom = assay: as above; type: in vivo, CD-1 mice; settings: 2.5×LD50 A. contortrix venom preincubated with 60 μg of each drug, i.v., 6 h, n=5
Protocol: as §1, with “Thereafter, the” for “The”, “animal” for “preincubation”, “explore” for “assess”, “the same snake venom metalloproteinase and phospholipase A2” for “distinct toxin family”, “as solo and combination treatments against North American pit viper venoms. The intravenous median lethal dose (venom LD50) for C. atrox, C. scutulatus, S. miliariius and A. contortrix venoms was previously determined (3.79 μg, 0.17 μg, 4.87 μg and 4.99 μg per mouse, respectively).” for “in comparison with a drug combination.”, “As described above, all” for “All”
as §2

S. miliarius venom = assay: as above; type: in vivo, CD-1 mice; settings: 2.5×LD50 S. miliarius venom preincubated with 60 μg of each drug, i.v., 6 h, n=5
Protocol: as §1, with “Thereafter, the” for “The”, “animal” for “preincubation”, “explore” for “assess”, “the same snake venom metalloproteinase and phospholipase A2” for “distinct toxin family”, “as solo and combination treatments against North American pit viper venoms. The intravenous median lethal dose (venom LD50) for C. atrox, C. scutulatus, S. miliariius and A. contortrix venoms was previously determined (3.79 μg, 0.17 μg, 4.87 μg and 4.99 μg per mouse, respectively).” for “in comparison with a drug combination.”, “As described above, all” for “All”
as §2

[1] = tested on: metalloproteinase activity of C. atrox, C. adamanteus and C. horridus venom; assay: In vitro snake venom metalloproteinase assay, North American rattlesnake venoms; type: biochemical, Crotalus atrox, Crotalus adamanteus, Crotalus horridus; settings: 25 μM drug, 1 μg venom, range across the three rattlesnake venoms
Description: FIG. 6. […] Error bars represent standard deviation.
The remaining assay protocol with respects to fluorogenic substrate preparation, plate-read settings and data processing was the same as described above.
These species were selected for their clinical importance in the USA, namely: 1) Crotalus atrox (Western diamondback), which is found across the southwest USA and into Mexico and is thought to be the most common cause of snakebite envenoming in USA, 2) Crotalus horridus (Timber rattlesnake), which is found across Eastern and central USA, and is categorised as a Group I medically important snake by the World Health Organization. Furthermore, this species is not included in the immunising mixture of the current FDA-approved CroFab antivenom. 3) Crotalus adamanteus (Eastern diamondback), which is another Group I medically important snake, found in the South-East USA.

Row | SMILES | survival / protection against venom-induced lethality (Echis ocellatus venom) | protection against venom lethality (C. atrox venom) | protection against venom lethality (C. scutulatus venom) | protection against venom lethality (A. contortrix venom) | protection against venom lethality (S. miliarius venom) | inhibition of metalloproteinase activity [1]
1 | CCc1c(C(=O)C(N)=O)c2c(OCC(=O)O)cccc2n1Cc1ccccc1 [varespladib] | failed to prevent lethality over the full experimental time course | survived for longer periods of time than the venom only controls | survive the duration of the experiment | survived for longer periods of time than the venom only controls | survived for longer periods of time than the venom only controls | –
2 | CNC(=O)[C@@H](NC(=O)[C@H](CC(C)C)[C@H](O)C(=O)NO)C(C)(C)C [marimastat] | only one death; also recorded: remaining four survived | Neither drug provided protection | some limited protection | Neither drug provided protection | some protection | 90.9-99.1%
3 | O=S(=O)(O)CC(S)CS (stereo not shown) [DMPS, 2,3-dimercapto-1-propanesulfonic acid] | all animals surviving; also recorded: complete protection | Neither drug provided protection | some limited protection | Neither drug provided protection | – | 88.6-97.8%
